From patent US3959283A, “Amino-derivatives of 1,4-benzodioxan” (Laboratoire L. Lafon, priority 1974, dated 1976)
Structures can show the parent of a compound that is named as a salt.

Tests used:
[1] = test system: adrenalin; experiment: Effect on the amines and reflexes: adrenalin; conditions: in vivo
Description: (§1) In Table III below, the effects of the products on the amines and the reflexes have been summarised.

[2] = test system: reflex relating to occlusion of the carotids; experiment: Effect on the amines and reflexes: occlusion of the carotids; conditions: in vivo
Description: as §1

[3] = test system: dogs; experiment: Intraduodenal administration to dogs anaesthetised with Nembutal (product of Example 11), Experiments A to D; format: in vivo
Experimental: Complementary experiments carried out on anaesthetised dogs have been given below for the product of Example 11 administered intraduodenally (ID).
(§2) The product was investigated by intraduodenal administration to dogs anaesthetised with Nembutal, in four experiments, A B C and D.
The arterial pressure is not altered. The pulse rate increases by at most 20% after 15 minutes and then decreases slowly (+ 14% after 30 minutes).
After 1 hour, the femoral flow rate has still been increased by 100% (from 36 to 72 ml/minute).
The α-receptors of the animal are already blocked. […] The vertebral flow rate is 20 ml/minute.
15 hr. […] 15 hr. […] 16 hr. […] 16 hr. 23 min. Propanolol: 0.3 mg/kg administered intravenously. […] The arterial pressure increases by approximately 10%. […] The pulse rate increases by 20 to 33%. […] The femoral flow rate is increased by only 25%.

[4] = test system: dogs; experiment: Hypotensive effect in dogs anaesthetised with Nembutal; format: in vivo
Description: This hypotension manifests itself especially in a decrease in the differential pressure, the lowering of the diastolic pressure being greater than that of the systolic pressure.

[5] = test system: adrenergic receptors; experiment: Inhibition/reversal of tension effects of adrenalin, intravenous (products of Examples 11 to 13); format: in vivo; conditions: i.v.
Experimental: the doses of CRL 40,150 from 0.5 to 4 mg/kg being administered successively.

[6] = test system: adrenergic receptors; experiment: Tension effects of adrenalin after intraduodenal product of Example 11; format: in vivo, dogs; conditions: Experiment A
Description: as §2

[7] = test system: acetylcholine; experiment: Effect on the amines and reflexes: acetylcholine; conditions: in vivo
Description: as §1

[8] = Acute intravenous toxicity in mice, products of Examples 10 to 13 (LD50); conditions: mouse, in vivo, i.v., group of male and female mice
Description: (a) determined on a group of male and female mice,
(b) determined on a group consisting solely of female mice.

[9] = test system: peripheral vagus; experiment: Effect on the amines and reflexes: stimulation of the peripheral vagus; conditions: in vivo
Description: as §1

[10] = test system: central vagus; experiment: Effect on the amines and reflexes: stimulation of the central vagus; conditions: in vivo
Description: as §1

[11] = Experiment A, 15 and 30 mg/kg ID
[12] = Experiment B, second administration 30 mg/kg ID, after 1 hour
[13] = Experiment B, second administration 30 mg/kg ID, after 2 hours
[14] = Experiment B, third administration 30 mg/kg ID
[15] = Experiment D, second 15 mg/kg ID

Q: For `COc1cc(OC)cc(OCCN2CCN(CC3COc4ccccc4O3)CC2)c1` (centres unmarked) [Example 11, 1-[2-(1,4-Benzodioxanyl)-methyl]-4-[2-(3,5-dimethoxyphenoxy)-ethyl]-piperazine dihydrochloride], which “Effect on the amines and reflexes: adrenalin” value [1] is on record?
A: reversal

Q: What about the “Effect on the amines and reflexes: reflex relating to occlusion of the carotids” value [2] of the same compound?
A: reduced

Q: And the arterial pressure [3, 11]?
A: not altered

Q: And the “effect on the femoral flow rate” value [3, 11]?
A: no effect

Q: What about the “effect on the vertebral flow rate” value [3, 11] of the same compound?
A: no effect

Q: And the “increase in pulse rate” value ([3]; Experiment A, after 15 minutes)?
A: at most 20%

Q: And the “increase in pulse rate” value ([3]; Experiment A, after 30 minutes)?
A: 14%

Q: And the “increase in femoral flow rate” value ([3]; Experiment B, 15 mg/kg ID, 5 minutes)?
A: 134%

Q: What about the “increase in femoral flow rate” value ([3]; Experiment B, 15 mg/kg ID, 15 minutes) of the same compound?
A: 194%

Q: What about the “increase in femoral flow rate” value ([3]; Experiment B, 15 mg/kg ID, 1 hour) of the same compound?
A: 100%

Q: And the femoral flow rate ([3]; Experiment B, 15 mg/kg ID, 1 hour, from 36)?
A: 72 mL/min

Q: And the “increase in differential arterial pressure” value ([3]; Experiment B, ID)?
A: 30%

Q: And the “increase in the pulse rate” value ([3]; Experiment B, ID)?
A: ≤ 30%

Q: And the “decrease in average arterial pressure” value ([3]; Experiment B, ID, at most)?
A: ≤ 18%

Q: And the average arterial pressure ([3]; Experiment B, ID, lowest, from 165)?
A: 135 mm Hg

Q: What about the femoral flow rate [3, 12] of the same compound?
A: 104 mL/min

Q: And the “increase in femoral flow rate” value [3, 12]?
A: 184%

Q: And the femoral flow rate [3, 13]?
A: 92 mL/min

Q: What about the “increase in femoral flow rate” value [3, 13] of the same compound?
A: 156%

Q: And the “change in femoral flow rate” value ([3]; Experiment B, second administration 30 mg/kg ID, first 45 minutes)?
A: does not change the flow rate further

Q: And the femoral flow rate [3, 14]?
A: 108 mL/min

Q: What about the “increase in femoral flow rate” value [3, 14] of the same compound?
A: 200%

Q: What about the “effect on the femoral flow rate” value ([3]; Experiment C, 15 mg/kg ID) of the same compound?
A: zero

Q: And the “increase in vertebral flow rate” value ([3]; Experiment C, 15 mg/kg ID, after 60 minutes)?
A: 35%

Q: And the vertebral flow rate ([3]; Experiment C, 15 mg/kg ID, after 60 minutes, from 20)?
A: 27 mL/min

Q: What about the average pressure ([3]; Experiment D, 15 mg/kg ID) of the same compound?
A: remaining constant

Q: And the differential pressure ([3]; Experiment D, 15 mg/kg ID)?
A: large increase in the differential pressure

Q: What about the “increase in arterial pressure” value ([3]; Experiment D, 15 mg/kg ID) of the same compound?
A: approximately 10%

Q: And the “increase in femoral flow rate” value ([3]; Experiment D, 15 mg/kg ID, 10 minutes)?
A: 170%

Q: What about the femoral flow rate ([3]; Experiment D, 15 mg/kg ID, 10 minutes, from 48) of the same compound?
A: 130 mL/min

Q: And the “increase in femoral flow rate” value ([3]; Experiment D, 15 mg/kg ID, 30 minutes)?
A: 100%

Q: And the “increase in femoral flow rate” value ([3]; Experiment D, 15 mg/kg ID, 75 minutes)?
A: 50%

Q: What about the “increase in vertebral flow rate” value ([3]; Experiment D, 15 mg/kg ID, first administration, at most) of the same compound?
A: ≤ 16%

Q: What about the “increase in femoral flow rate” value [3, 15] of the same compound?
A: 25%

Q: What about the vertebral flow rate [3, 15] of the same compound?
A: 70 mL/min

Q: What about the “increase in vertebral flow rate” value ([3]; Experiment D, second 15 mg/kg ID, after 15 minutes) of the same compound?
A: 94%

Q: What about the hypotension [4] of the same compound?
A: 40%

Q: And the “dose from which tension effects of adrenalin are inhibited and then reversed” value [5]?
A: ≥ 0.37 mg/kg

Q: And the “tension effects of adrenalin” value ([6]; 5 minutes after the first dose (15 mg/kg ID))?
A: reversed

Q: And the “passage through the intestinal barrier” value ([6]; ID)?
A: passed through the intestinal barrier

Q: What about the “Effect on the amines and reflexes: acetylcholine” value [7] of the same compound?
A: no change

Q: And the LD50 [8]?
A: 60 mg/kg

Q: What about the “Effect on the amines and reflexes: stimulation of the peripheral vagus” value [9] of the same compound?
A: not changed

Q: And the “Effect on the amines and reflexes: stimulation of the central vagus” value [10]?
A: not changed
